# US20250188057A1, “NON-AROMATIC CYCLIC-PYRIMIDINE ANALOGS AS GLUCOSYLCERAMIDE SYNTHASE INHIBITORS” (Merck Sharp & Dohme LLC, priority 2022, published 2025)
# Target: glucosylceramide synthase (GCS) (Homo sapiens (Human), UniProt Q16739)
# Assay: UDP-Glo glucosylceramide synthase biochemical assay
# Conditions: endogenous GCS in Golgi preparations isolated from human A375 malignant melanoma skin cells; UDP detection by luminescence
# Text: A UDP-Glo™ glucosylceramide synthase biochemical assay was utilized to evaluate the effect of test compounds on the activity of endogenous levels of GCS enzyme contained within Golgi preparations isolated from human A375 malignant melanoma skin cells. The UDP-Glo™ glucosylceramide synthase assay uses UDP-Glucose as a nucleotide-glycosyl donor and ceramide as substrate acceptor molecules. In the reaction, glucosylceramide synthase (GCS) transfers glucose from UDP-Glucose to ceramide. Glucosylceramide and UDP are released as products.
# Using Promega's UDP-Glo™ Glycosyltransferase assay kit (Promega Corporation, Madison, WI, USA (Promega)), GCS activity was indirectly measured by detecting the amount of UDP produced. An aliquot of GCS enzyme (1.5 μg crude golgi preparation, total protein) and titrated test compound were aliquoted to each well and incubated for 30 minutes at room temperature. […] An equivalent volume of substrate mixture was then added to each well. Following a 20 h incubation at room temperature to allow for GCS turnover of substrate, an equal volume of UDP detection reagent (Promega) was added to each well and incubated for an additional 75 minutes at room temperature to simultaneously convert the accumulated UDP product into ATP and generate light in a luciferase reaction. The generated light was detected using a luminometer. […] luminescence values (RLUs) were normalized to mean “min” and “max” effects, as determined on each plate. “Min” was defined as the mean of the values of the wells treated with vehicle (DMSO) and which represent 0% inhibition; “max” was defined as the mean of the values of the wells treated with a reference inhibitor and which represent the 100% effect. Values for % Emax and EC50 were determined by best-fitting the normalized data to a curve in Activity Base along a four-parameter logistic nonlinear regression (4PL) model (based on the Levenberg-Marquardt algorithm and defined by the equation below): […]
# where: n is 4PMin (bottom of the curve); m is 4PMax (top of the curve); i is IP (inflection point of curve); and p is slope. See Levenberg, K., “A Method for the Solution of Certain Problems in Least Squares”, Quart. Appl. Math. 2, (1944), pp 164-168 and Marquardt, D., “An Algorithm for Least Squares Estimation on Nonlinear Parameters”, SIAM J. Appl. Math 11, (1963) pp 431-441.
# glucosylceramide synthase (GCS), sequence (Q16739 whole entry): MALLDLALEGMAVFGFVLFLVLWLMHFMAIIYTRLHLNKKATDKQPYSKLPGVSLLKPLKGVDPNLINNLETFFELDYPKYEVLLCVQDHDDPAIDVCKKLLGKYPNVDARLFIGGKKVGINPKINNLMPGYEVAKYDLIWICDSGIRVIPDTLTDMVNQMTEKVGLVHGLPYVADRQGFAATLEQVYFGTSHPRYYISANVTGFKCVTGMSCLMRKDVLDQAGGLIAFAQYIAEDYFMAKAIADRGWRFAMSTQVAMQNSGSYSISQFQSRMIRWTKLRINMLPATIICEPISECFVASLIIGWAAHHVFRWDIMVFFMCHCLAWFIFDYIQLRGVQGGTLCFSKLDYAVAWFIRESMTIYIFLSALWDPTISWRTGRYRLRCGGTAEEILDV
row,SMILES,IC50 [µM]
1,"N#Cc1cnc(C2CC2)nc1OCC12CC1CN(c1ncc(C(F)(F)F)cn1)C2 (stereo not shown) [Compound 51, 2-cyclopropyl-4-((3-(5-(trifluoromethyl)pyrimidin-2-yl)-3-azabicyclo[3.1.0]hexan-1-yl)methoxy)pyrimidine-5-carbonitrile]",0.09
2,"Cc1cc(N2CC[C@H](COc3nc(C4CC4)ncc3C#N)C2)ncc1F [Compound 30, (S)-2-cyclopropyl-4-((1-(5-fluoro-4-methylpyridin-2-yl)pyrrolidin-3-yl)methoxy)pyrimidine-5-carbonitrile]",1.24
3,"N#Cc1cnc(C2CC2)nc1OCC1CCC(c2ccccc2)O1 (stereo not shown) [Compound 102, 2-cyclopropyl-4-((5-phenyltetrahydrofuran-2-yl)methoxy)pyrimidin-5-carbonitrile]",0.195
4,"OCc1c(Cl)nc(C2CC2)nc1NC1CCCc2sc(C3CCCCC3)nc21 (stereo not shown) [Compound 115, (4-chloro-6-((2-cyclohexyl-4,5,6,7-tetrahydrobenzo[d]thiazol-4-yl)amino)-2-cyclopropylpyrimidin-5-yl)methanol]",0.0075
5,"N#Cc1cnc(C2CC2)nc1OC[C@H]1CCN(c2ccc(-c3cnco3)cc2)C1 [Compound 22, (S)-2-cyclopropyl-4-((1-(4-(oxazol-5-yl)phenyl)pyrrolidin-3-yl)methoxy)pyrimidine-5-carbonitrile]",0.026
6,"COc1ccc(C)nc1N1CC[C@H](COc2nc(C3CC3)ncc2C#N)C1 [Compound 28, (S)-2-cyclopropyl-4-((1-(3-methoxy-6-methylpyridin-2-yl)pyrrolidin-3-yl)methoxy)pyrimidine-5-carbonitrile]",4.52
7,"N#Cc1cnc(C2CC2)nc1N1CCC(N2CCN(Cc3ccc(F)cc3)S2(=O)=O)CC1 [Compound 78, 2-cyclopropyl-4-(4-(5-(4-fluorobenzyl)-1,1-dioxido-1,2,5-thiadiazolidin-2-yl)piperidin-1-yl)pyrimidine-5-carbonitrile]",1.8
8,"N#Cc1cnc(C2CC2)nc1OC[C@H]1CCN(c2ccnc(OC3CC3)c2)C1 [Compound 47, (S)-4-((1-(2-cyclopropoxypyridin-4-yl)pyrrolidin-3-yl)methoxy)-2-cyclopropylpyrimidine-5-carbonitrile]",3.09
9,"N#Cc1cnc(C2CC2)nc1N1CC2CCCC1CN(Cc1ccccc1)C2 (stereo not shown) [Compound 72, 4-(3-benzyl-3,9-diazabicyclo[3.3.2]decan-9-yl)-2-cyclopropylpyrimidine-5-carbonitrile]",1.86
10,"CNC(=O)[C@]12CN(c3nc(C4CC4)ncc3C#N)C[C@H]1C(c1ccc(C)cc1)=NO2 [Compound 67, (3aS,6aR)-5-(5-cyano-2-cyclopropylpyrimidin-4-yl)-N-methyl-3-(p-tolyl)-3a,4,5,6-tetrahydro-6aH-pyrrolo[3,4-d]isoxazole-6a-carboxamide]",0.207
11,"CCC(C)c1nc2c(s1)CCCC2Nc1nc(C2CC2)nc(Cl)c1CO (stereo not shown) [Compound 116, (4-((2-(sec-butyl)-4,5,6,7-tetrahydrobenzo[d]thiazol-4-yl)amino)-6-chloro-2-cyclopropylpyrimidin-5-yl)methanol]",3.91
12,"N#Cc1cnc(C2CC2)nc1OC[C@@H]1CCN(c2ccc(C(F)(F)F)nc2)C1 [Compound 45, (R)-2-cyclopropyl-4-((1-(6-(trifluoromethyl)pyridin-3-yl)pyrrolidin-3-yl)methoxy)pyrimidine-5-carbonitrile]",0.255
13,"OCc1cnc(C2CC2)nc1OCC1CCN(c2ccc(C(F)(F)F)nc2)CC1 [Compound 5, (2-cyclopropyl-4-((1-(6-(trifluoromethyl)pyridin-3-yl)piperidin-4-yl)methoxy)pyrimidin-5-yl)methanol]",3.41
14,"COC(=O)C[C@@H]1COc2cc(OC3CN(c4nc(C5CC5)ncc4C#N)C3)ccc21 [Compound 80, methyl (S)-2-(6-((1-(5-cyano-2-cyclopropylpyrimidin-4-yl)azetidin-3-yl)oxy)-2,3-dihydrobenzofuran-3-yl)acetate]",0.303
15,"COc1cc(N2CC[C@@H](COc3nc(C4CC4)ncc3C#N)C2)c(F)cn1 [Compound 38, (R)-2-cyclopropyl-4-((1-(5-fluoro-2-methoxypyridin-4-yl)pyrrolidin-3-yl)methoxy)pyrimidine-5-carbonitrile]",2.94
16,"N#Cc1cnc(C2CC2)nc1OCC1CCCN1Cc1ccccc1Cl (stereo not shown) [Compound 106, 4-((1-(2-chlorobenzyl)pyrrolidin-2-yl)methoxy)-2-cyclopropylpyrimidine-5-carbonitrile]",1.33
17,"N#Cc1cnc(C2CC2)nc1OC[C@H]1CCN(c2cccc3ncccc23)C1 [Compound 34, (S)-2-cyclopropyl-4-((1-(quinolin-5-yl)pyrrolidin-3-yl)methoxy)pyrimidine-5-carbonitrile]",2.05
18,"COc1cccc(N2CC[C@H](COc3nc(C4CC4)ncc3C#N)C2)n1 [Compound 12, (S)-2-cyclopropyl-4-((1-(6-methoxypyridin-2-yl)pyrrolidin-3-yl)methoxy)pyrimidine-5-carbonitrile]",0.529
19,"N#Cc1cnc(C2CC2)nc1OCC1CCN(c2ccccc2)C1 (stereo not shown) [Compound 100, 2-cyclopropyl-4-((1-phenylpyrrolidin-3-yl)methoxy)pyrimidine-5-carbonitrile]",0.16
20,"N#Cc1cnc(C2CC2)nc1OCC12CC(C1)N(c1ncc(C(F)(F)F)cn1)C2 [Compound 54, 2-cyclopropyl-4-((2-(5-(trifluoromethyl)pyrimidin-2-yl)-2-azabicyclo[2.1.1]hexan-4-yl)methoxy)pyrimidine-5-carbonitrile]",0.107
21,"N#Cc1cnc(C2CC2)nc1OC[C@H]1CCN(c2ccc(C(F)(F)F)cn2)C1 [Compound 43, (S)-2-cyclopropyl-4-((1-(5-(trifluoromethyl)pyridin-2-yl)pyrrolidin-3-yl)methoxy)pyrimidine-5-carbonitrile]",0.04

# Continued, values first:
row,IC50 [µM],SMILES
1,1.48,"N#Cc1cnc(C2CC2)nc1N1CCCC(c2cc3cccnc3[nH]2)C1 (stereo not shown) [Compound 76, 4-(3-(1H-pyrrolo[2,3-b]pyridin-2-yl)piperidin-1-yl)-2-cyclopropylpyrimidine-5-carbonitrile]"
2,2.76,"N#Cc1cnc(C2CC2)nc1N1CCc2c(sn(Cc3ccc(F)cc3)c2=O)C1 [Compound 69, 2-cyclopropyl-4-(2-(4-fluorobenzyl)-3-oxo-3,4,5,7-tetrahydroisothiazolo[5,4-c]pyridin-6(2H)-yl)pyrimidine-5-carbonitrile]"
3,0.067,"COc1ccc(N2CCC(COc3nc(C4CC4)ncc3C#N)C2)cc1 (stereo not shown) [Compound 107, 2-cyclopropyl-4-((1-(4-methoxyphenyl)pyrrolidin-3-yl)methoxy)pyrimidine-5-carbonitrile]"
4,0.078,"N#Cc1cnc(C2CC2)nc1OC[C@H]1CCN(c2ccc(-n3cccn3)nc2)C1 [Compound 55, (S)-4-((1-(6-(1H-pyrazol-1-yl)pyridin-3-yl)pyrrolidin-3-yl)methoxy)-2-cyclopropylpyrimidine-5-carbonitrile]"
5,0.266,"Cc1nc2c(s1)CCCC2Nc1nc(C2CC2)nc(Cl)c1CO (single isomer, unassigned) [Compound 110, (4-chloro-2-cyclopropyl-6-((2-methyl-4,5,6,7-tetrahydrobenzo[d]thiazol-4-yl)amino)pyrimidin-5-yl)methanol]"
6,0.832,"CC(C)N1C(=O)[C@]2(c3ccsc3)CN(c3nc(C4CC4)ncc3C#N)C[C@@H]2S1(=O)=O [Compound 71, 2-cyclopropyl-4-((3aS,6aR)-2-isopropyl-1,1-dioxido-3-oxo-3a-(thiophen-3-yl)hexahydro-5H-pyrrolo[3,4-d]isothiazol-5-yl)pyrimidine-5-carbonitrile]"
7,0.593,"Cc1nc2c(s1)CCCC2Nc1nc(C2CC2)nc(Cl)c1CO (stereo not shown) [Compound 109, (4-chloro-2-cyclopropyl-6-((2-methyl-4,5,6,7-tetrahydrobenzo[d]thiazol-4-yl)amino)pyrimidin-5-yl)methanol]"
8,1.35,"N#Cc1cnc(C2CC2)nc1N1CCC2(CC1)Cc1cc(F)ccc1O2 [Compound 64, 2-cyclopropyl-4-(5-fluoro-3H-spiro[benzofuran-2,4′-piperidin]-1′-yl)pyrimidine-5-carbonitrile]"
9,0.067,"N#Cc1cnc(C2CC2)nc1OC[C@H]1CCN(c2ccc(-c3ccno3)cc2)C1 [Compound 18, (S)-2-cyclopropyl-4-((1-(4-(isoxazol-5-yl)phenyl)pyrrolidin-3-yl)methoxy)pyrimidine-5-carbonitrile]"
10,0.035,"N#Cc1cnc(C2CC2)nc1OC[C@H]1CCN(c2ccc(-c3ncco3)cc2)C1 [Compound 11, (S)-2-cyclopropyl-4-((1-(4-(oxazol-2-yl)phenyl)pyrrolidin-3-yl)methoxy)pyrimidine-5-carbonitrile]"
